In patent US20230107642A1 (Erasca, Inc., priority 2020, published 2023):

Molecular target: T1, K-Ras G12C (Homo sapiens, UniProt P01116, G12C)
T1 construct: This protein contained 188 amino acids in total, including an N-terminal 6-Histidine tag; made in house; host or cells: E. coli BL21
Experiment: CAF assay (% CAF; method in Example 7, not in this part)
Format: binding
Settings: 1 h; for % CAF @ 10 uM, 1h: Table 3

SMILES	% CAF @ 10 uM, 1h	% CAF @ 10 μM, 1 h (10 μM, Table 4)
C=CC(=O)N1CCN(c2nc(=O)n3c4c(c(-c5cc(Cl)c(F)cc5F)c(Cl)cc24)SCC3)[C@@H](C)C1 [Example 82, 7-((S)-4-acryloyl-2-methylpiperazin-1-yl)-9-chloro-10-(5-chloro-2,4-difluorophenyl)-2,3-dihydro-5H-[1,4]thiazino[2,3,4-ij]quinazolin-5-one]	85.8%	–
C=CC(=O)N1CCN(c2nc(=O)n3c4c(c(-c5ccc(F)c(C#N)c5)c(Cl)cc24)SCC3)[C@@H](C)C1 [Example 83, (S)-5-(7-(4-acryloyl-2-methylpiperazin-1-yl)-9-chloro-5-oxo-2,3-dihydro-5H-[1,4]thiazino[2,3,4-ij]quinazolin-10-yl)-2-fluorobenzonitrile]	85.3%	–
C=CC(=O)N1C2CN(c3nc(=O)n4c5c(c(-c6ccc(F)cc6F)c(Cl)cc35)SCC4)CC1CS(=O)(=O)C2 [Example 84, 7-(9-acryloyl-3,3-dioxido-3-thia-7,9-diazabicyclo[3.3.1]nonan-7-yl)-9-chloro-10-(2,4-difluorophenyl)-2,3-dihydro-5H-[1,4]thiazino[2,3,4-ij]quinazolin-5-one]	43.8%	–
C=CC(=O)N1CCN(c2nc(=O)n3c4c(c(-c5ccc(F)c(C(=O)NC)c5)c(Cl)cc24)SCC3)[C@@H](C)C1 [Example 85, (S)-5-(7-(4-acryloyl-2-methylpiperazin-1-yl)-9-chloro-5-oxo-2,3-dihydro-5H-[1,4]thiazino[2,3,4-ij]quinazolin-10-yl)-2-fluoro-N-methylbenzamide]	60.3%	–
C=CC(=O)N1CCN(c2nc(=O)n3c4c(c(-c5cccc6cnccc56)c(Cl)cc24)SCC3)[C@@H](C)C1 [Example 86, 7-((S)-4-acryloyl-2-methylpiperazin-1-yl)-9-chloro-10-(isoquinolin-5-yl)-2,3-dihydro-5H-[1,4]thiazino[2,3,4-ij]quinazolin-5-one]	76.1%	–
C=CC(=O)N1CCN(c2nc(=O)n3c4c(c(-c5ccc(F)cc5F)c(Cl)cc24)SC[C@H]3CC2CCN(C)CC2)[C@@H](C)C1 [Example 87, (3R)-7-((S)-4-acryloyl-2-methylpiperazin-1-yl)-9-chloro-10-(2,4-difluorophenyl)-3-((1-methylpiperidin-4-yl)methyl)-2,3-dihydro-5H-[1,4]thiazino[2,3,4-ij]quinazolin-5-one]	82.4%	–
C=CC(=O)N1CCN(c2nc(=O)n3c4c(c(-c5ccc(F)cc5F)c(Cl)cc24)SCC3)C[C@@H]1CC#N [Example 88, 2-((2S)-1-acryloyl-4-(9-chloro-10-(2,4-difluorophenyl)-5-oxo-2,3-dihydro-5H-[1,4]thiazino[2,3,4-ij]quinazolin-7-yl)piperazin-2-yl)acetonitrile]	90.2%	–
C=CC(=O)N1CCN(c2nc(=O)n3c4c(c(-c5ccc(Cl)c(F)c5)c(Cl)cc24)SCC3)[C@@H](C)C1 [Example 89, (S)-7-(4-acryloyl-2-methylpiperazin-1-yl)-9-chloro-10-(4-chloro-3-fluorophenyl)-2,3-dihydro-5H-[1,4]thiazino[2,3,4-ij]quinazolin-5-one]	94.5%	–
C=CC(=O)N1CCN(c2nc(=O)n3c4c(c(-c5cc(F)c(F)c(F)c5)c(Cl)cc24)SCC3)[C@@H](C)C1 [Example 90, (S)-7-(4-acryloyl-2-methylpiperazin-1-yl)-9-chloro-10-(3,4,5-trifluorophenyl)-2,3-dihydro-5H-[1,4]thiazino[2,3,4-ij]quinazolin-5-one]	78.8%	–
C=CC(=O)N1CCN(c2nc(=O)n3c4c(c(-c5c(F)cc(F)cc5F)c(Cl)cc24)SC[C@H]3CC2CCN(C)CC2)[C@@H](C)C1 [Example 91, (R)-7-((S)-4-acryloyl-2-methylpiperazin-1-yl)-9-chloro-3-((1-methylpiperidin-4-yl)methyl)-10-(2,4,6-trifluorophenyl)-2,3-dihydro-5H-[1,4]thiazino[2,3,4-ij]quinazolin-5-one]	94.8%	–
C=CC(=O)N1CCN(c2nc(=O)n3c4c(c(-c5c(F)cc(F)cc5F)c(Cl)cc24)SC[C@@H]3CC2CCN(C)CC2)[C@@H](C)C1 [Example 92, (S)-7-((S)-4-acryloyl-2-methylpiperazin-1-yl)-9-chloro-3-((1-methylpiperidin-4-yl)methyl)-10-(2,4,6-trifluorophenyl)-2,3-dihydro-5H-[1,4]thiazino[2,3,4-ij]quinazolin-5-one]	96.7%	–
C[C@H]1CN(C(=O)/C=C/C(F)(F)F)CCN1c1nc(=O)n2c3c(c(-c4ccc(F)c(Cl)c4)c(Cl)cc13)SCC2 [Example 93, (S,E)-9-chloro-10-(3-chloro-4-fluorophenyl)-7-(2-methyl-4-(4,4,4-trifluorobut-2-enoyl)piperazin-1-yl)-2,3-dihydro-5H-[1,4]thiazino[2,3,4-ij]quinazolin-5-one]	95%	–
C=CC(=O)N1CCN(c2nc(=O)n3c4c(c(-c5ccc(F)cc5F)c(Cl)cc24)SC[C@@H]3CCCN2C[C@@H]3C[C@H]2CO3)[C@@H](C)C1 [Example 94, (3S)-3-(3-((1S,4S)-2-oxa-5-azabicyclo[2.2.1]heptan-5-yl)propyl)-7-((S)-4-acryloyl-2-methylpiperazin-1-yl)-9-chloro-10-(2,4-difluorophenyl)-2,3-dihydro-5H-[1,4]thiazino[2,3,4-ij]quinazolin-5-one]	94.7%	–
C=CC(=O)N1C2CN(c3nc(=O)n4c5c(c(-c6ccc(F)cc6F)c(Cl)cc35)SCC4)CC1CN(S(C)(=O)=O)C2 [Example 95, 7-(9-acryloyl-7-(methylsulfonyl)-3,7,9-triazabicyclo[3.3.1]nonan-3-yl)-9-chloro-10-(2,4-difluorophenyl)-2,3-dihydro-5H-[1,4]thiazino[2,3,4-ij]quinazolin-5-one]	70.5%	–
C=CC(=O)N1CCN(c2nc(=O)n3c4c(c(-c5cccc6c5C(=O)NC6)c(Cl)cc24)SCC3)[C@@H](C)C1 [Example 96, 7-((S)-4-acryloyl-2-methylpiperazin-1-yl)-9-chloro-10-(3-oxoisoindolin-4-yl)-2,3-dihydro-5H-[1,4]thiazino[2,3,4-ij]quinazolin-5-one]	54%	–
C=CC(=O)N1CCN(c2nc(=O)n3c4c(c(-c5ccc(F)cc5F)c(Cl)cc24)SC[C@H]3CCCN2C[C@@H]3C[C@H]2CO3)[C@@H](C)C1 [Example 97, (3R)-3-(3-((1S,4S)-2-oxa-5-azabicyclo[2.2.1]heptan-5-yl)propyl)-7-((S)-4-acryloyl-2-methylpiperazin-1-yl)-9-chloro-10-(2,4-difluorophenyl)-2,3-dihydro-5H-[1,4]thiazino[2,3,4-ij]quinazolin-5-one]	96.5%	–
C=CC(=O)N1CCN(c2nc(=O)n3c4c(c(-c5ccc(F)c(Cl)c5)c(Cl)cc24)SCC3)[C@@H](C)C1 [Example 98, (S)-7-(4-acryloyl-2-methylpiperazin-1-yl)-9-chloro-10-(3-chloro-4-fluorophenyl)-2,3-dihydro-5H-[1,4]thiazino[2,3,4-ij]quinazolin-5-one]	86.4%	–
C=CC(=O)N1CCN(c2nc(=O)n3c4c(c(-c5ccc(F)cc5F)c(Cl)cc24)SC[C@H]3C)[C@@H](C)C1 [Example 99, (3R)-7-((S)-4-acryloyl-2-methylpiperazin-1-yl)-9-chloro-10-(2,4-difluorophenyl)-3-methyl-2H-[1,4]thiazino[2,3,4-ij]quinazolin-5(3H)-one]	87.2%	87.2%
C=CC(=O)N1CCN(c2nc(=O)n3c4c(c(-c5ccc(F)cc5F)c(C(F)(F)F)cc24)SCC3)C2CS(=O)(=O)CC21 (centres unmarked) [Example 100, 7-(4-acryloyl-6,6-dioxidohexahydrothieno[3,4-b]pyrazin-1(2H)-yl)-10-(2,4-difluorophenyl)-9-(trifluoromethyl)-2,3-dihydro-5H-[1,4]thiazino[2,3,4-ij]quinazolin-5-one]	94%	–
C=CC(=O)N1C2CC(=O)CC1CN(c1nc(=O)n3c4c(c(-c5ccc(F)cc5F)c(C(F)(F)F)cc14)SCC3)C2 [Example 101, 7-(9-acryloyl-7-oxo-3,9-diazabicyclo[3.3.1]nonan-3-yl)-10-(2,4-difluorophenyl)-9-(trifluoromethyl)-2,3-dihydro-5H-[1,4]thiazino[2,3,4-ij]quinazolin-5-one]	96.5%	–
C=CC(=O)N1CCN(c2nc(=O)n3c4c(c(-c5ccc(F)cc5F)c(Cl)cc24)SCCC3)[C@@H](C)C1 [Example 102, 8-((S)-4-acryloyl-2-methylpiperazin-1-yl)-10-chloro-11-(2,4-difluorophenyl)-3,4-dihydro-2H,6H-[1,4]thiazepino[2,3,4-ij]quinazolin-6-one]	95.4%	–
C=CC(=O)N1CCN(c2nc(=O)n3c4c(c(-c5ccc(F)cc5F)c(OC)cc24)SCC3)[C@@H](C)C1 [Example 103, 7-((S)-4-acryloyl-2-methylpiperazin-1-yl)-10-(2,4-difluorophenyl)-9-methoxy-2,3-dihydro-5H-[1,4]thiazino[2,3,4-ij]quinazolin-5-one]	92.5%	–
C=CC(=O)N1CCN(c2nc(=O)n3c4c(c(-c5ccc(F)cc5F)c(Cl)cc24)SCC3)[C@@H](CC#N)C1 [Example 104, 2-((2S)-4-acryloyl-1-(9-chloro-10-(2,4-difluorophenyl)-5-oxo-2,3-dihydro-5H-[1,4]thiazino[2,3,4-ij]quinazolin-7-yl)piperazin-2-yl)acetonitrile]	94.4%	–
C=CC(=O)N1CCN(c2nc(=O)n3c4c(c(-c5cccc6c5CC(=O)N6)c(Cl)cc24)SCC3)[C@@H](C)C1 [Example 105, 7-((S)-4-acryloyl-2-methylpiperazin-1-yl)-9-chloro-10-(2-oxoindolin-4-yl)-2,3-dihydro-5H-[1,4]thiazino[2,3,4-ij]quinazolin-5-one]	18.9%	–
C=CC(=O)N1CCN(c2nc(=O)n3c4c(c(-c5c(F)cc(Cl)cc5F)c(Cl)cc24)SCC3)[C@@H](C)C1 [Example 106, (S)-7-(4-acryloyl-2-methylpiperazin-1-yl)-9-chloro-10-(4-chloro-2,6-difluorophenyl)-2,3-dihydro-5H-[1,4]thiazino[2,3,4-ij]quinazolin-5-one]	45.2%	–
